Measurements from patent US9029385B2, “Compositions and methods for treating fibroproliferative disorders” (priority 2007, dated 2015).

Assays:
Type in all cases: in vivo
[1] = system: bleomycin-induced pulmonary fibrosis; assay: Bleomycin-induced pulmonary fibrosis mouse model: wet lung weight; conditions: mice, BLM 0.06 U IT; IP daily for 14 days (PTX 10 mg/kg, NAC 20 mg/kg); vs BLM + saline; FIG. 3
Protocol: The composition including pentoxifylline (PTX) and N-acetyl-cysteine (NAC) was assessed in vivo in a mouse model using an experimental design in which a pulmonary fibrosis was generated using bleomycin injury of lung. Bleomycin (BLM) is an effective antineoplastic drug that binds to and damages DNA of tumour cells. However, administration of BLM may result in lung inflammation that can progress to fibrosis. This side effect is due mostly to augmented concentration of reactive oxygen species, decrease in nicotinamide adenine dinucleotide (NAD) and adenosine triphosphate (ATP), and overproduction of mature collagen fibrils. Because BLM-induced lung fibrosis is easily reproduced in different species of mammals, experimental models using the drug have been adopted with the goal of investigating the efficacy of the current invention. […] In this example, the effects of PTX and NAC in combination were studied in comparison to PTX and NAC individually. […] In addition, the lung weights were recorded, photographs of the lungs were taken and tissue samples processed either for biochemical analysis of hydroxyproline (immediately frozen on dry ice) or further morphological analysis (immersed in fixative solution of 10% neutral-buffered formalin).

[2] = system: bleomycin-induced pulmonary fibrosis; assay: Bleomycin-induced pulmonary fibrosis mouse model: lung histopathology and semi-quantitative lesion score (Masson trichrome); conditions: mice, fourteen days after intratracheal bleomycin; PTX 10 mg/kg and/or NAC 20 mg/kg IP daily; vs untreated BLM animals
Description: FIG. 4 illustrates representative photomicrographs of lung histopathology. Normal lung histology is shown in panel A (Group I-saline). […] Collagen is stained with Masson trichrome (light blue color). Original ×10 and ×40 magnifications are shown. FIG. 5 illustrates the effect of pentoxifylline and N-acetyl-cysteine on histological lesions scores of the extent and severity of fibrosis in the experimental groups, as indicated. Data are representative of 5 independent experiments, presented as mean±SD (n=4). The composition including pentoxifylline (PTX) and N-acetyl-cysteine (NAC) was assessed in vivo in a mouse model using an experimental design in which a pulmonary fibrosis was generated using bleomycin injury of lung. Bleomycin (BLM) is an effective antineoplastic drug that binds to and damages DNA of tumour cells. However, administration of BLM may result in lung inflammation that can progress to fibrosis. […] In addition, the lung weights were recorded, photographs of the lungs were taken and tissue samples processed either for biochemical analysis of hydroxyproline (immediately frozen on dry ice) or further morphological analysis (immersed in fixative solution of 10% neutral-buffered formalin).

TNF-α = assay: Bleomycin-induced pulmonary fibrosis mouse model: TNF-α in bronchoalveolar lavage fluid by ELISA; conditions: mice, day 5 post bleomycin instillation, PTX 10 mg/kg, NAC 20 mg/kg IP daily, FIG. 7
Protocol: Difference of TNF-α at day 5 post bleomycin instillation is shown. Values are means±SD; 5 mice per group. The composition including pentoxifylline (PTX) and N-acetyl-cysteine (NAC) was assessed in vivo in a mouse model using an experimental design in which a pulmonary fibrosis was generated using bleomycin injury of lung. Bleomycin (BLM) is an effective antineoplastic drug that binds to and damages DNA of tumour cells. However, administration of BLM may result in lung inflammation that can progress to fibrosis. This side effect is due mostly to augmented concentration of reactive oxygen species, decrease in nicotinamide adenine dinucleotide (NAD) and adenosine triphosphate (ATP), and overproduction of mature collagen fibrils. Because BLM-induced lung fibrosis is easily reproduced in different species of mammals, experimental models using the drug have been adopted with the goal of investigating the efficacy of the current invention. [table] Mice (under anesthesia) received a single intratracheal dose of either saline (control) or bleomycin (BLM). […] In addition, the lung weights were recorded, photographs of the lungs were taken and tissue samples processed either for biochemical analysis of hydroxyproline (immediately frozen on dry ice) or further morphological analysis (immersed in fixative solution of 10% neutral-buffered formalin). […]

glutathione (GSH) = assay: Bleomycin-induced pulmonary fibrosis mouse model: total glutathione in bronchoalveolar lavage fluid; conditions: mice, BLM IT; NAC 20 mg/kg IP daily; FIG. 8
Protocol: FIG. 8 illustrates total glutathione levels in bronchoalveolar lavage fluid (BALF) in different experimental groups, as indicated. Data are representative of 4 independent experiments, and presented as mean±SD (n=5). The composition including pentoxifylline (PTX) and N-acetyl-cysteine (NAC) was assessed in vivo in a mouse model using an experimental design in which a pulmonary fibrosis was generated using bleomycin injury of lung. Bleomycin (BLM) is an effective antineoplastic drug that binds to and damages DNA of tumour cells. However, administration of BLM may result in lung inflammation that can progress to fibrosis. This side effect is due mostly to augmented concentration of reactive oxygen species, decrease in nicotinamide adenine dinucleotide (NAD) and adenosine triphosphate (ATP), and overproduction of mature collagen fibrils. Because BLM-induced lung fibrosis is easily reproduced in different species of mammals, experimental models using the drug have been adopted with the goal of investigating the efficacy of the current invention. [table] […] In addition, the lung weights were recorded, photographs of the lungs were taken and tissue samples processed either for biochemical analysis of hydroxyproline (immediately frozen on dry ice) or further morphological analysis (immersed in fixative solution of 10% neutral-buffered formalin). […]

| Compound | lung weight [1] | anti-fibrotic effect seen in lung histology [2] | BLM-induced increase in TNF-α level in BALF (TNF-α) | total glutathione (GSH) level in BALF (glutathione (GSH)) |
| --- | --- | --- | --- | --- |
| CC(=O)N[C@@H](CS)C(=O)O [NAC, N-acetyl-L-cysteine] | lower lung weights were observed but statistical significance was not reached | marked anti-fibrotic effect | significantly decreased | GSH levels can indeed be supplemented |
| CC(=O)CCCCn1c(=O)c2c(ncn2C)n(C)c1=O [PTX, pentoxifylline] | lower lung weights were observed but statistical significance was not reached | – | significantly decreased | – |
